This is an account of results in ChEMBL document CHEMBL3286208, “Pyranocoumarins from Glehnia littoralis inhibit the LPS-induced NO production in macrophage RAW 264.7 cells” (Bioorg Med Chem Lett, 2014).

A word on the IC50: it is the concentration needed to halve the response being measured.

One data set has as its system RAW264.7. Put plainly: Inhibition of LPS-induced NO production in mouse RAW264.7 cells after 24 hrs by Griess method. The data set is classed as functional, cell-based. The settings on record: RAW264.7, 24 h. (In general: The Griess reaction detects nitrite, a stable product of nitric oxide.)
Data set [1] can be described thus: Cytotoxicity against mouse RAW264.7 cells assessed as cell viability at 0.5 to 50 uM. The note with it: read-out: Activity. The class given is cell-based.

Where only a bound is given, the exact number is not on record here.

In the case of `CC(C)C(=O)O[C@H]1c2c(ccc3ccc(=O)oc23)OC(C)(C)[C@H]1OC(=O)C(C)C`, half-maximal inhibition with RAW264.7 (IC50) required 28.2 µM. Moreover, the viability at up to 50 µM in data set [1] is over 90%.

Take `CC(=O)O[C@H]1c2c(ccc3ccc(=O)oc23)OC(C)(C)[C@H]1OC(=O)C=C(C)C`: the midpoint of inhibition in the data set on RAW264.7, the IC50, lay at 44.3 µM. Moreover, the viability at up to 50 µM in data set [1] is over 90%.

`CC(=O)O[C@H]1c2c(ccc3ccc(=O)oc23)OC(C)(C)[C@H]1OC(=O)CC(C)C` yielded an IC50 in the data set on RAW264.7 of 18.8 µM. Also, the viability at up to 50 µM in data set [1] was over 90%.

`CC(C)CC(=O)O[C@H]1c2c(ccc3ccc(=O)oc23)OC(C)(C)[C@H]1OC(=O)CC(C)C`: the IC50 with RAW264.7 was found to be 7.4 µM. The viability at up to 50 µM in data set [1] is over 90%.

Turning to `CC(C)=CC(=O)O[C@H]1c2c(ccc3ccc(=O)oc23)OC(C)(C)[C@H]1OC(=O)CC(C)C`, it took 9.9 µM to reach half-maximal inhibition in the data set on RAW264.7 (IC50). The viability at up to 50 µM in data set [1] is over 90%.

As for `CC(C)=CC(=O)O[C@H]1c2c(ccc3ccc(=O)oc23)OC(C)(C)[C@H]1OC(=O)C=C(C)C`, in the data set on RAW264.7, the IC50 amounted to 9.8 µM. In addition, the viability at up to 50 µM in data set [1] was over 90%.

In the data set on RAW264.7, `N=C(N)NN` [PIMAGEDINE] displayed an IC50 of 16.9 µM.
